The values that follow come from patent publication US12629415B2, “Vaccine adjuvants” (THE PROVOST, FELLOWS, FOUNDATION SCHOLARS, AND THE OTHER …, priority 2018, dated 2026).

One assay has as its system bovine PBMCs. Kind of assay: Western blot of pro-IL-1β in bovine PBMC lysates. It counts as cell-based, cattle. On the procedure: Supernatants were collected after 24 hours and IL-1β was detected by ELISA. Human PBMCs were stimulated for 24 hours with polydA:dT (5 μg/ml, 2 μg/ml or 1 μg/ml) or alum (50 μg/ml) alone or with LPS (100 pg/ml) (C & D). Supernatants were collected and IL-1β was detected by ELISA. […] Cell lysates were harvested and pro-IL-1β was detected by western blot. PBMCs were stimulated with media or polydA:dT (1 μg/ml) for 6 hours. Cells were lysed and RNA was harvested and used for analysis by RT-PCR (F). Results are mean+/− SEM for 6 calves tested individually in triplicate. For human analysis, results are mean+/− SEM for 6 humans tested individually in triplicate The PPIA gene was used for normalization of gene expression.
Background: A western blot detects proteins with antibodies after separation by electrophoresis.

The subject of another assay is PBMCs or CBMCs. Kind of assay: CXCL10 (IP-10) ELISA. As to conditions: CBMCs compared with PBMCs. It counts as cell-based, human. On the procedure: Poly(I:C) (5 μg/ml) (Invivogen), Poly(dA:dT) (5 μg/ml) (Sigma-Aldrich), 2′3′ cGAMP (10 μg/ml), 5′ triphosphate double stranded RNA (5′ ppp dsRNA) (2.5 μg/ml) and HSV-60 (2 μg/ml) (all from Invivogen) were transfected into PBMCs or CBMCs using TransIT-X2 (Mirus).
Measurement of cytokines—HEK Blue TNFα/IFNα/β Assays were performed as per the manufacturer's (Invivogen) instructions using Quanti-Blue Detection Reagent. SEAP levels were determined using a spectrophotometer plate reader at 630 nm. IFNα (3425-1H-6, Mabtech) and IP-10 (DY266, R&D Systems) were detected by sandwich ELISA. IFNα ELISA used pan specific IFNα antibodies, which allows detection of IFNα subtypes 1/13, 2, 4, 5, 6, 7, 8, 10, 14, 16 and 17. BioLegend LEGENDplex™ Human Inflammation Panel (13-plex) was carried out as per manufacturer's (Biolegend) instructions to determine levels of IFNγ, IL-10, IL-12p70 and IL-23. A BD LSR Fortessa cell analyser was used to acquire samples and BioLegend LEGENDplex™ software was used for analysis.
Background: ELISA stands for enzyme-linked immunosorbent assay.

“poly(deoxyadenylic-thymidylic) acid [Poly(dA:dT)]”: the pro-IL-1β expression result in the assay with bovine PBMCs (6 hours, data not shown) was “enhances pro-IL-1β expression after 6 hours”. Also, in the assay on bovine PBMCs (16 hours, with or without LPS 100 pg/ml), the “pro-IL-1β (western blot)” value is reported as “pro-IL-1β was evidently expressed in cells stimulated with polydA:dT in the absence of LPS”. Moreover, the CXCL10 protein secretion entry with PBMCs or CBMCs was “no significant difference in the CXCL10 response between PBMCs or CBMCs”.
